Holding throughout (test): Growth inhibition (MTT) assay, with or without MDR modulators
The test system of data set [1] is MES-SA cells. Type of data set: cell-based, human. The note with it: for IC50: Homo sapiens, read-out: IC50 of drug-sensitive MES-SA cells (values in parenthesis). On the procedure: (§1) Cells and Tissue Culture. Details of the development and characterization of the human cell line MES-SA and its MDR variant MES-SA/Dx5 (D×5), which were derived from sarcoma elements of a uterine mixed Mullerian tumor, are described in Harker and Sikic (1985) Cancer Research 45:3810-3815. MES-SA/DxP5002 (DxP) cells were derived from Dx5.05 cells (D×5 cells selected and maintained at a DOX concentration of 0.5 μM) by step-wise selection in the presence of increasing DOX concentrations (from 40 nM up to 0.5 μM) and a constant PSC 833 concentration at 2 μM over a one-year period. Monolayer cultures of MES-SA cells and its variants were grown in McCoy's medium (Irvine Scientific, Santa Ana, Calif.) supplemented with 10% newborn calf serum (Gibco, Grand Island, N.Y.), 2 mM L-glutamine, and antibiotics(100 U/ml penicillin, 100 μg/ml streptomycin).
(§2) Growth Inhibition Assay. Approximately 8000 cells per well were seeded in 96 well plates and incubated with or without drugs for 72 hr at 37° C. in an atmosphere of 5% CO2. Growth inhibition was evaluated by the MTT colorimetric assay in triplicate or quadruplicate as previously described. The absorbance was measured with a ThermoMax microplate reader (Molecular Devices, Menlo Park, Calif.). The IC50 (drug concentration resulting in 50% inhibition of MTT dye formation, compared to controls) was determined directly from semi-logarithmic dose-response curves. The doubling times of MES-SA, D×5, and D×P were determined as previously described.
(§3) Reversal of MDR by Modulators. […] The modulation ratio was obtained by comparing IC50 s in the presence and absence of modulators.

For data set [2], the system named is MES-SA/Dx5 (Dx5) cells. It is filed as cell-based, human. As for the experimental part: as §1, §2, §3
In data set [3] the test system is MES-SA/DxP5002 (DxP) cells. The note with it: for Level of resistance of DxP cells to the cytotoxin compared with parental Dx5 (in words) / Fold resistance: DxP cells; for Dx5/DxP, fold of resistance difference in DxP cells compared with parental Dx5 cells: DxP vs Dx5. As for the experimental part: Cells and Tissue Culture. […] Monolayer cultures of MES-SA cells and its variants were grown in McCoy's medium (Irvine Scientific, Santa Ana, Calif.) supplemented with 10% newborn calf serum (Gibco, Grand Island, N.Y.), 2 mM L-glutamine, and antibiotics(100 U/ml penicillin, 100 μg/ml streptomycin).
Growth Inhibition Assay. Approximately 8000 cells per well were seeded in 96 well plates and incubated with or without drugs for 72 hr at 37° C. in an atmosphere of 5% CO2. Growth inhibition was evaluated by the MTT colorimetric assay in triplicate or quadruplicate as previously described. The absorbance was measured with a ThermoMax microplate reader (Molecular Devices, Menlo Park, Calif.). […] The doubling times of MES-SA, D×5, and D×P were determined as previously described.
as §3

Where [4] appears, read: MES-SA cells, no modulator, 72 hr MTT.
[5] abbreviates: no modulator, relative to MES-SA.

Read-outs that look alike come from different tables or passages of the source. *1 amine or outer side, *2 acyl side, *3 side chain or, on linkers, in order; H or OH if unused. Where a SMILES comes first, the peptide text is derived from it. Bridges are numbered along the chain shown (N, C = ends). Roman numbers before positions name the chains, in order. [ ]: non-standard residue; d: D form. Actinocin(9to1) = Cc1c2oc3c(C)ccc(C(=O)[*:1])c3nc-2c(C(=O)[*:2])c(N)c1=O; NMeV = CN[C@H](C(=O)O)C(C)C; Sar = CNCC(=O)O

As for `Cc1c2oc3c(C)ccc(C(=O)N[C@@H]4C(=O)N[C@H](C(C)C)C(=O)N5CCC[C@H]5C(=O)N(C)CC(=O)N(C)[C@@H](C(C)C)C(=O)O[C@@H]4C)c3nc-2c(C(=O)N[C@@H]2C(=O)N[C@H](C(C)C)C(=O)N3CCC[C@H]3C(=O)N(C)CC(=O)N(C)[C@@H](C(C)C)C(=O)O[C@@H]2C)c(N)c1=O` [D actinomycin, dactinomycin] (I: T[dV]P[Sar][NMeV] / II: T[dV]P[Sar][NMeV]; ester I:1-I:C, II:1-II:C; linker I:N-II:N via Actinocin(9to1)), the IC50 in data set [1] (MES-SA, 72 h) came to 0.3 nM. Further, the “Fold resistance” value in data set [1] (setting [4]) came to 1 fold; in data set [2] (setting [5]), 183 fold; in data set [3] (setting [5]), 1 fold. For the same compound, the “Level of resistance of DxP cells to the cytotoxin compared with parental Dx5 (in words)” value (“Level … compared with parental Dx5 (in words)” for short) in data set [3] is given as “completely restored”. In data set [3], the “Dx5/DxP, fold of resistance difference in DxP cells compared with parental Dx5 cells” value (“Dx5/DxP, fold of resistance difference” for short) came to 183 fold.
As for `CC[C@]1(O)C[C@H]2CN(CCc3c([nH]c4ccccc34)[C@@](C(=O)OC)(c3cc4c(cc3OC)N(C=O)[C@H]3[C@@](O)(C(=O)OC)[C@H](OC(C)=O)[C@]5(CC)C=CCN6CC[C@]43[C@@H]65)C2)C1` [Vincristine], the half-inhibitory concentration (IC50) in data set [1] (MES-SA cells, 72 hr MTT) came out at 2 nM. In addition, the Fold resistance was 0.7 fold in data set [1] (MES-SA cells, +2 μM PSC 833); 0.3-1 fold in data set [1] (MES-SA cells, +6 μM Verapamil); 1 fold in data set [1] (setting [4]); 1 fold in data set [2] (+2 μM PSC 833); 7 fold in data set [2] (+6 μM Verapamil); 199 fold in data set [2] (setting [5]). Further, the Fold resistance in data set [3] (+2 μM PSC 833) came to 7 fold; in data set [3] (+6 μM Verapamil), 3 fold; in data set [3] (setting [5]), 8 fold. Also, the “Dx5/DxP, fold of resistance difference” value in data set [3] turned out to be 25 fold.
With `COc1cc(NS(C)(=O)=O)ccc1Nc1c2ccccc2nc2ccccc12` [Amsacrine], the IC50 in data set [1] (MES-SA cells, 72 hr MTT) stood at 100 nM. Besides, the “Fold resistance” value in data set [1] (setting [4]) was 1 fold; in data set [2] (setting [5]), 26 fold; in data set [3] (setting [5]), 2 fold. The “Dx5/DxP, fold of resistance difference” value in data set [3] was determined as 13 fold.
With `COc1cc([C@@H]2c3cc4c(cc3[C@@H](O[C@@H]3O[C@@H]5CO[C@@H](C)O[C@H]5[C@H](O)[C@H]3O)[C@H]3COC(=O)[C@H]23)OCO4)cc(OC)c1O` [Etoposide], the IC50 in data set [1] (MES-SA cells, 72 hr MTT) was found to be 500 nM. Besides, the Fold resistance came to 1 fold in data set [1] (MES-SA cells, +2 μM PSC 833); 1 fold in data set [1] (setting [4]); 1 fold in data set [2] (+2 μM PSC 833); 42 fold in data set [2] (setting [5]); 18 fold in data set [3] (+2 μM PSC 833). Moreover, in data set [3], the “Level … compared with parental Dx5 (in words)” value is “moderately decreased resistance”. For the same compound, in data set [3], the “Dx5/DxP, fold of resistance difference” value is listed as 2 fold.
As to `COc1cc([C@@H]2c3cc4c(cc3[C@@H](O[C@@H]3O[C@@H]5CO[C@@H](c6cccs6)O[C@H]5[C@H](O)[C@H]3O)[C@H]3COC(=O)[C@H]23)OCO4)cc(OC)c1O` [Teniposide], in data set [1] (MES-SA cells, 72 hr MTT), the IC50 turned out to be 100 nM. Further, the “Fold resistance” value in data set [1] (setting [4]) is reported as 1 fold; in data set [2] (setting [5]), 135 fold; in data set [3] (setting [5]), 53 fold. Besides, the “Level … compared with parental Dx5 (in words)” value in data set [3] is reported as “moderately decreased resistance”. Also, the “Dx5/DxP, fold of resistance difference” value in data set [3] turned out to be 3 fold.
Consider `CC(=O)O[C@H]1C(=O)[C@@]2(C)[C@H]([C@H](OC(=O)c3ccccc3)[C@]3(O)C[C@H](OC(=O)[C@H](O)[C@@H](NC(=O)c4ccccc4)c4ccccc4)C(C)=C1C3(C)C)[C@]1(OC(C)=O)CO[C@@H]1C[C@@H]2O` [Paclitaxel], for which, in data set [1] (MES-SA cells, 72 hr MTT), the concentration for half-maximal inhibition (IC50) was 1 nM. Also, the Fold resistance was 0.3-1 fold in data set [1] (MES-SA cells, +2 μM PSC 833); 0.5-1 fold in data set [1] (MES-SA cells, +3 μM cyclosporin A); 0.3-1 fold in data set [1] (MES-SA cells, +6 μM Verapamil); 1 fold in data set [1] (setting [4]); 1 fold in data set [2] (+2 μM PSC 833); 13 fold in data set [2] (+3 μM cyclosporin A). Moreover, the Fold resistance in data set [2] (+6 μM Verapamil) turned out to be 25 fold; in data set [2] (setting [5]), 175 fold; in data set [3] (+2 μM PSC 833), 5 fold; in data set [3] (+3 μM cyclosporin A), 38 fold; in data set [3] (+6 μM Verapamil), 44 fold; in data set [3] (setting [5]), 100 fold. The “Level … compared with parental Dx5 (in words)” value in data set [3] is “high levels of resistance”. Also, in data set [3], the “Dx5/DxP, fold of resistance difference” value is 2 fold.
Regarding `COc1cc2c(c(OC)c1OC)-c1ccc(OC)c(=O)cc1[C@@H](NC(C)=O)CC2` [Colchicine], the “Level … compared with parental Dx5 (in words)” value in data set [3] is reported as “high levels of resistance”.
Regarding `COc1cccc2c1C(=O)c1c(O)c3c(c(O)c1C2=O)C[C@@](O)(C(C)=O)C[C@@H]3O[C@H]1C[C@H](N)[C@H](O)[C@H](C)O1` [Daunorubicin], in data set [1] (MES-SA, 72 h), the half-maximal inhibitory concentration (IC50) is 20 nM. The entries for the “Fold resistance” value in data set [1] (setting [4]), in data set [2] (setting [5]) and in data set [3] (setting [5]) were 1 fold, 75 fold and 25 fold, respectively. For the same compound, the “Level … compared with parental Dx5 (in words)” value in data set [3] is reported as “slightly decreased”. Besides, the “Dx5/DxP, fold of resistance difference” value in data set [3] is on record as 3 fold.
Regarding `CCC1=C[C@@H]2CN(C1)Cc1c([nH]c3ccccc13)[C@@](C(=O)OC)(c1cc3c(cc1OC)N(C)[C@H]1[C@@](O)(C(=O)OC)[C@H](OC(C)=O)[C@]4(CC)C=CCN5CC[C@]31[C@@H]54)C2` [vinorelbine], the 50% inhibitory concentration (IC50) in data set [1] (MES-SA cells, 72 hr MTT) came out at 60 nM. In addition, the entries for the “Fold resistance” value in data set [1] (setting [4]), in data set [2] (setting [5]) and in data set [3] (setting [5]) were 1 fold, 17 fold and 2 fold, respectively. Besides, the “Dx5/DxP, fold of resistance difference” value in data set [3] was determined as 9 fold.
